Measurements: PubChem BioAssay AID248 (DTP/NCI, 2004)
Several values for one entry are separate records, joined by “and”; a condition that tells them apart may be missing. Identical values can stand only once. Toxic doses and inconclusive results are not listed. Cut-off read from the data, not from the text of the source: active = T/C of 150% or more; inactive = T/C below 125%. Peptide text beside a SMILES is read from it. * marks the point of attachment. Bn = c1ccc(C*)cc1

Test system: L1210 leukemia ip in BDF1 mice, survival T/C
Experiment: NCI In Vivo Anticancer Drug Screen. Data for tumor model L1210 Leukemia (intraperitoneal) in B6D2F1 (BDF1) mice
Settings: endpoint: mean survival time, higher = longer survival
Method in brief: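 In this screen, tumor-bearing mice given compound are compared to those given vehicle, and their survival values are reported as a treated-to-control quotient.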

[1] = dose: 100.0 mg/kg/injection, schedule: Q04DX003 (ip), vehicle: saline with Tween-80
[2] = dose: 200.0 mg/kg/injection, schedule: Q04DX003 (ip), vehicle: saline with Tween-80
[3] = dose: 100.0 mg/kg/injection, schedule: Q01DX001 (ip), vehicle: saline
[4] = dose: 200.0 mg/kg/injection, schedule: Q01DX001 (ip), vehicle: saline
[5] = dose: 400.0 mg/kg/injection, schedule: Q01DX001 (ip), vehicle: saline

Measured: T/C

CC(=O)SCCNCCNC1CC2CCC1C2 (centres undefined)
inactive: dose: 1.25 mg/kg/injection, schedule: Q01DX009 (ip), vehicle: saline 94 % of control | dose: 2.5 mg/kg/injection, schedule: Q01DX009 (ip), vehicle: saline 97 % of control | dose: 5.0 mg/kg/injection, schedule: Q01DX009 (ip), vehicle: saline 100 % of control | dose: 7.2 mg/kg/injection, schedule: Q01DX009 (ip), vehicle: saline 94 % of control | dose: 10.0 mg/kg/injection, schedule: Q01DX001 (ip), vehicle: saline 92 % of control | dose: 10.0 mg/kg/injection, schedule: Q04DX003 (ip), vehicle: saline 99 % of control | dose: 11.0 mg/kg/injection, schedule: Q01DX009 (ip), vehicle: saline 92 % of control | dose: 16.5 mg/kg/injection, schedule: Q01DX009 (ip), vehicle: saline 90 % of control | dose: 20.0 mg/kg/injection, schedule: Q01DX001 (ip), vehicle: saline 90 % of control | dose: 23.0 mg/kg/injection, schedule: Q01DX009 (ip), vehicle: saline 88 % of control | dose: 40.0 mg/kg/injection, schedule: Q01DX001 (ip), vehicle: saline 95 % of control

CC(C)c1ccc(/C=C(\C(=O)O)c2cccc3ccccc23)cc1
inactive: dose: 100.0 mg/kg/injection, schedule: Q01DX009 (ip), vehicle: Klucel (hydroxypropylcellulose) (HPC) 101 % of control

COC(=O)C(CC(C)C)NC(=O)C(N)Cc1ccc(OCc2ccccc2)cc1 (centres undefined) (H-Tyr(Bn)-Leu-OMe; configuration not given here)
inactive: dose: 6.25 mg/kg/injection, schedule: Q01DX009 (ip), vehicle: saline with Tween-80 111 % of control | dose: 12.5 mg/kg/injection, schedule: Q01DX009 (ip), vehicle: saline with Tween-80 111 % of control | dose: 25.0 mg/kg/injection, schedule: Q01DX009 (ip), vehicle: saline with Tween-80 106 % of control and 90 % of control | dose: 25.0 mg/kg/injection, schedule: Q04DX003 (ip), vehicle: saline with Tween-80 98 % of control | dose: 50.0 mg/kg/injection, schedule: Q04DX003 (ip), vehicle: saline with Tween-80 104 % of control | [1] 96 % of control and 102 % of control

CC(=O)Oc1c(N)c(C)cc(C)c1F
inactive: dose: 6.0 mg/kg/injection, schedule: Q01DX001 (ip), vehicle: Klucel (hydroxypropylcellulose) (HPC) 92 % of control | dose: 12.0 mg/kg/injection, schedule: Q01DX001 (ip), vehicle: Klucel (hydroxypropylcellulose) (HPC) 92 % of control | dose: 25.0 mg/kg/injection, schedule: Q01DX001 (ip), vehicle: Klucel (hydroxypropylcellulose) (HPC) 110 % of control

NC(=S)N/N=C/c1ccc2c(c1)OCO2
inactive: [1] 95 % of control | [2] 103 % of control

C[C@]12C=CC(=O)C=C1CC[C@@H]1[C@@H]2[C@@H](O)C[C@@]2(C)[C@H]1CC[C@]2(O)C(=O)COC(=O)C1CCCC1
inactive: dose: 89.0 mg/kg/injection, schedule: Q01DX Z (sc), vehicle: distilled water + alcohol 111 % of control | dose: 89.0 mg/kg/injection, schedule: Q01DX Z (sc), vehicle: steriod suspending solution 104 % of control | dose: 130.0 mg/kg/injection, schedule: Q01DX Z (sc), vehicle: steriod suspending solution 98 % of control | dose: 133.0 mg/kg/injection, schedule: Q01DX Z (sc), vehicle: distilled water + alcohol 96 % of control | dose: 200.0 mg/kg/injection, schedule: Q01DX Z (sc), vehicle: distilled water + alcohol 96 % of control | dose: 200.0 mg/kg/injection, schedule: Q01DX Z (sc), vehicle: steriod suspending solution 112 % of control | dose: 300.0 mg/kg/injection, schedule: Q01DX Z (sc), vehicle: distilled water + alcohol 108 % of control | dose: 300.0 mg/kg/injection, schedule: Q01DX Z (sc), vehicle: steriod suspending solution 93 % of control

CCOC(=O)CC(CC(=O)OCC)NC(=O)c1ccc(N(C)C=O)cc1
inactive: dose: 100.0 mg/kg/injection, schedule: Q01DX001 (ip), vehicle: other 100 % of control | dose: 200.0 mg/kg/injection, schedule: Q01DX001 (ip), vehicle: other 102 % of control | dose: 400.0 mg/kg/injection, schedule: Q01DX001 (ip), vehicle: other 97 % of control

CC(C)N=Cc1cc(I)cc(I)c1O.CC(C)N=Cc1cc(I)cc(I)c1O.[Co]
inactive: dose: 100.0 mg/kg/injection, schedule: Q04DX003 (ip), vehicle: saline 88 % of control | dose: 200.0 mg/kg/injection, schedule: Q04DX003 (ip), vehicle: saline 94 % of control | dose: 400.0 mg/kg/injection, schedule: Q04DX003 (ip), vehicle: saline 102 % of control

CCOP(=O)(/N=C1/C2CCC(C2)C1C)OCC (centres undefined)
inactive: dose: 12.5 mg/kg/injection, schedule: Q04DX003 (ip), vehicle: saline 94 % of control | dose: 25.0 mg/kg/injection, schedule: Q04DX003 (ip), vehicle: saline 105 % of control | dose: 50.0 mg/kg/injection, schedule: Q04DX003 (ip), vehicle: saline 102 % of control

CCc1nc(=O)c2ccccc2n1C
inactive: dose: 1.5 mg/kg/injection, schedule: Q01DX001 (ip), vehicle: saline 100 % of control | dose: 3.0 mg/kg/injection, schedule: Q01DX001 (ip), vehicle: saline 95 % of control | dose: 6.0 mg/kg/injection, schedule: Q01DX001 (ip), vehicle: saline 107 % of control

CCOC(=O)C[n+]1ccccc1/C=C/c1ccc(O)cc1
inactive: dose: 9.38 mg/kg/injection, schedule: Q01DX001 (ip), vehicle: other 101 % of control

O=S(=O)(Nc1ccccc1)c1ccc2c(Cl)cc(S(=O)(=O)Nc3ccccc3)cc2c1
inactive: dose: 100.0 mg/kg/injection, schedule: Q01DX001 (ip), vehicle: saline with Tween-80 93 % of control | dose: 200.0 mg/kg/injection, schedule: Q01DX001 (ip), vehicle: saline with Tween-80 93 % of control | dose: 400.0 mg/kg/injection, schedule: Q01DX001 (ip), vehicle: saline with Tween-80 91 % of control

CC(C)CCCC(=O)O
inactive: [3] 97 % of control | [4] 100 % of control | [5] 89 % of control

CC(C(=O)O)C(N)C(=O)O (centres undefined)
inactive: dose: 75.0 mg/kg/injection, schedule: Q04DX003 (ip), vehicle: saline 102 % of control | dose: 100.0 mg/kg/injection, schedule: Q01DX001 (ip), vehicle: Klucel (hydroxypropylcellulose) (HPC) 88 % of control | [3] 98 % of control | dose: 150.0 mg/kg/injection, schedule: Q04DX003 (ip), vehicle: saline 102 % of control | dose: 200.0 mg/kg/injection, schedule: Q01DX001 (ip), vehicle: Klucel (hydroxypropylcellulose) (HPC) 97 % of control | [4] 96 % of control | dose: 300.0 mg/kg/injection, schedule: Q04DX003 (ip), vehicle: saline 102 % of control | dose: 400.0 mg/kg/injection, schedule: Q01DX001 (ip), vehicle: Klucel (hydroxypropylcellulose) (HPC) 92 % of control | [5] 95 % of control

O=C/C=C/C=C/C=C/C=C/C=C\c1ccccc1
inactive: dose: 75.0 mg/kg/injection, schedule: Q01DX001 (ip), vehicle: other 92 % of control | dose: 150.0 mg/kg/injection, schedule: Q01DX001 (ip), vehicle: other 96 % of control | dose: 300.0 mg/kg/injection, schedule: Q01DX001 (ip), vehicle: other 100 % of control

CC12CCC3C(C1)C(C(=O)O2)C(=O)OC3(C)C (centres undefined)
inactive: dose: 75.0 mg/kg/injection, schedule: Q01DX009 (ip), vehicle: Klucel (hydroxypropylcellulose) (HPC) 99 % of control | dose: 150.0 mg/kg/injection, schedule: Q01DX009 (ip), vehicle: Klucel (hydroxypropylcellulose) (HPC) 101 % of control

Cc1ccc(C(=O)C(F)(F)F)cc1
inactive: [1] 96 % of control | [2] 102 % of control

Clc1ccccc1C(c1ccccc1)(c1ccc2ccccc2c1)n1ccnc1 (centres undefined)
inactive: dose: 100.0 mg/kg/injection, schedule: Q04DX003 (ip), vehicle: Klucel (hydroxypropylcellulose) (HPC) 102 % of control | dose: 200.0 mg/kg/injection, schedule: Q04DX003 (ip), vehicle: Klucel (hydroxypropylcellulose) (HPC) 101 % of control | dose: 400.0 mg/kg/injection, schedule: Q04DX003 (ip), vehicle: Klucel (hydroxypropylcellulose) (HPC) 101 % of control
